Literature values in patent US9446139B2, “Polymer-based compositions and conjugates of HIV entry inhibitors” (Nektar Therapeutics, priority 2004, dated 2016).

Experiments:
[1] = 90-mg single subcutaneous dose (N=12)

Substance: enfuvirtide
- mean elimination half life [1]: 3.8 ± 0.6 h
- mean±SD apparent clearance [1]: 0.413 ± 0.0683 mL/min/kg
- mean duration of each ISR (human, in vivo): around 7 days
- patients reporting at least one instance of painful or troublesome local injection site reactions (ISR) (subcutaneous injection two times a day): 98%
